Assay results as given in PMC8750417, “Intracellular Amplifiers of Reactive Oxygen Species Affecting Mitochondria as Radiosensitizers” (Cancers, 2021).

Columns and labels:
[1] = Prodrug-induced generation of ROS in cell free settings (DCFH/H2O2); details: for ROS Release Efficacy: relative acceleration of the rate of DCFH fluorescence increase with H2O2, pH 7.4, FeSO4 = 1.0
Source text: As previously reported, the NAAF-prodrugs react with ROS like H2O2, first leading to the cleavage of the B-C-bond with the formation of the phenol derivatives (product 2c-1, Figure S49, SI). The latter compounds exist in equilibrium with the corresponding phenolates. The phenolates undergo the spontaneous 1,6-elimination of para-quinone methide (QM) followed by the release of CO2 with the formation of the N-alkylaminoferrocene NAAF drugs (product 2c-2, Figure S46, SI). By using electrospray ionization mass spectrometry (ESI–MS), we confirmed for one representative prodrug 2c that it reacts with H2O2 in cell free settings according to this common mechanism (ESI-MS, Figures S46–S48, SI). The NAAF is further oxidized by H2O2 or molecular oxygen with the generation of drug NAAF^+ and highly toxic HO• or/and O2^•−. Finally, the NAAF^+ is reduced by glutathione (GSH), thereby closing the catalytic cycle, in which the NAAF acts as a catalyst. We evaluated the formation of HO• or/and O2^•− by using 2′,7′-dichlorodihydrofluorescein (DCFH) as a probe (Table 1, Figure S49, SI). This probe is oxidized to the fluorescent product 2′,7′-dichlorofluorescein (DCF) in the presence of HO• or/and O2^•−. […] The lower activity of 2c and 2d correlates with their higher lipophilicity and their correspondingly higher propensity to form aggregates in aqueous solution (Figure S45, SI).
Prodrug-induced generation of ROS in cell free settings
2',7'-Dichlorodihydrofluorescein diacetate (DCFH-DA, 4.9 mg) was dissolved in DMF (100 μL) and mixed with aqueous NaOH (0.1 M, 900 μL). The resulting mixture was incubated for 30 min at 22 °C in the dark to obtain a stock solution of 2',7'-dichlorodihydrofluorescein (DCFH, 10 mM). Next, DCFH (1 µL ) was added to the solution containing MOPS buf fer (100 mM, pH 7.4), N,N,N'N' -e thylenediaminetetraacetic acid (EDTA , 10 mM) and glutathione (GSH , 5 mM) (1 mL, final concentration of DCFH 10 μM). The reaction mixture was heated to 37 °C and H2O2 (1 µL, final concentration 10 mM) was added. The reaction was monitored by fluorescence spectroscopy: λex = 501 nm, λem = 523 nm. After around 5 min, prodrugs (1 mM in DMF, 10 μL) or positive control FeSO4 (1 mM in water, 10 μL) were added, and the fluorescence monitoring was continued until the fluorescence signal growth was stalled after approximately 100 to 300 min. A representative kinetics of ROS […]
The data are presented in Table 1 as relative acceleration of the rate of the fluorescence increase, where the rate of the fluorescence increase obtained in the presence of positive control FeSO4 was set […]
y = a time + b (a = (dF/dt) , min-1)
Figure S49. Increase of the fluorescence intensity (λex = 501 nm, λem = 523 nm) upon oxidation of DCFH by H2O2 in the presence of FeSO4. Experimental details are provided in the description above. The time point of the FeSO4 addition is indicated with a black […]
(also on this page, place not known: ° C µL) buffer N,N,N'N'-ethylenediaminetetraacetic (EDTA, (GSH, ° C FeSO 4 (λ ex λ em Fluorescence (a.u.) (dF/dt)0, min -1 Addition of)
(1 picture or pasted object on this page, not shown here)

[2] = tested on: A2780 cells; experiment: Accumulation of prodrugs in A2780 cells (atomic emission spectrometry of B, Fe); format: cell-based, human; details: 5 µM, 4 h, Zn as internal standard, carrier = 1
Protocol: colored arrow. After the initial lagging period, the oxidation reactions reach their maximum […]
Accumulation of prodrugs in A2780 cells
A2780 cells (around 150 cells/µL, 40 mL) were seeded in T175 flasks (Greiner, Germany) in RPMI 1640 medium supplemented with 5% FBS, 1% L-glutamine, and 1% penicillin/streptomycin and incubated for 3-4 days at 37°C in the chamber filled with 5%
CO2. Next, a fresh portion of RPMI 1640 medium supplemented with 5% FBS, 1% L - glutamine, and 1% penicillin/streptomycin was added to replace old medium. Prodrugs ([…], 400 µL in DMSO, final concentration: 5 µM) or carrier (DMSO, 400 µL, final concentration: 1%. v/v) were added into the bottles and the cells were further incubated at 37°C for 4 h. The cells were washed with DPBS (2 x 10 mL) and trypsinated (trypsin/EDTA, 0.025%/0.01%, v/v, 2 mL). After the cells were harvested and centrifuged (5 min, 1000 rpm) in 50 mL falcon tube, the cell pellet was re-suspended in DPBS (1 mL), the suspension - transferred to 1.5 mL EP tube and centrifuged one more time (2 min, 2000 rpm). The obtained cell pellet was shaken with concentrated HNO3 (65%, 100 µL) in an Eppendorf Thermomixer for 10 min at 95° C, 600 rpm. […] The insoluble components were separated by centrifugation (30 min, 13000 rpm) and the supernatant was analyzed by atomic emission spectrometry (AES) for the detection of B, Zn and Fe. […]

[3] = tested on: AsPC1 cells; experiment: Cell viability by flow cytometry, AsPC1; format: cell-based, human; details: AsPC1, 72 h incubation
Protocol: Table S3. Effects of the prodrugs on the viability of BL2 cell line (IC50 values) after 48 and […]
AsPC1 cells The cells (20.000/well) were seeded in a 12-well plate and incubated for 24 h. Afterwards, the medium was changed and the cells were further incubated for 72 h with medium containing different concentrations of compounds 2c and 5b. Viable cells were determined based on the morphological parameters by using flow cytometry (Table S4).
Table S4. Effects of the prodrugs on the viability of AsPC1 cell lines (IC50 values) after 72 […]
Jurkat cells The cells were counted in MUSE Cell Analyzer using MUSE® Count &Viability Assay Kit (Merck-Millipore, Billerica, MA, USA) and adjusted to a density of 1.0 x 10^5/ml in RPMI 1640 medium (with 10% FCS and 1% glutamine). 9.000 cells per well per 90 µL were seeded into 96 well culture plates. The 30 mM prodrug stock solutions in DMSO were diluted to 300 µM, 100 µM, 30 µM and 10 µM in cell culture medium and 10 µL of the dilutions was pipetted to the cells, receiving final test concentrations of 30 µM, 10 µM, 3 µM and 1 µM. Every concentration was tested in triplicates. Cells with corresponding amounts of DMSO served as negative controls. After 48 h cells were mixed and 25 µL of […]

| SMILES | ROS-generating activity, fold lower than that of 2a and 2b ([1]; cell free DCFH assay) | ROS Release Efficacy [1] | Relative iron amount [2] | IC50 [3] [µM] |
| --- | --- | --- | --- | --- |
| CC1(C)OB(c2ccc(COC(=O)N(Cc3cn(Cc4ccc(Cn5cc(Cc6ccccc6)nn5)cc4)nn3)[c-]3cccc3)cc2)OC1(C)C.[Fe+2].c1cc[cH-]c1 [2c] | ~ 2 fold | 0.35 ± 0.17 | 5.0 ± 0.1 | 7.1 ± 1 |
| CC1(C)OB(c2ccc(COC(=O)N(Cc3cccc(CN4CCCCC4)c3)[c-]3cccc3)cc2)OC1(C)C.[Fe+2].c1cc[cH-]c1 [5b] |  |  |  | 6.7 ± 0.5 |
| CCOC(=O)CCCCCn1cc(CN(C(=O)OCc2ccc(B3OC(C)(C)C(C)(C)O3)cc2)[c-]2cccc2)nn1.[Fe+2].c1cc[cH-]c1 [compound 1] |  | 0.99 ± 0.16 | 1.4 ± 0.1 |  |
